In ChEMBL document CHEMBL1201862, “PubChem BioAssay data set” (2004):
Active and inactive are the calls of the source.

Key:
INS1 = assay: beta cell apoptosis inhibitors, cytokine rescue, dose response, luminescence, retest (AID 449756); assay type: functional, cell-based; conditions: Rattus norvegicus;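 also: cell death triggered by IL-1 beta plus TNF-alpha plus IFN-gamma mixture; protective hits raise ATP signal compared with cytokine alone wells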
[1] = C. albicans growth with fluconazole, confirmation, fluorescence, retest (AID 2467); assay type: functional, cell-based
[2] = NIH-3T3 fibroblast cytotoxicity, dose response, cytotoxicity control, cell-based, fluorescence, Alamar Blue, secondary assay (AID 2327); assay type: functional;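 also: NIH-3T3 mouse fibroblasts cultured with fluconazole at 8 µg/mL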
[3] = Shn3 3'UTR reporter inhibitors, dose response, cell-based, Clone20 osteoblasts, firefly luciferase, cherry-picked (AID 624132); assay type: functional;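 also: firefly luciferase luminescence from reporter carrying the Shn3 3'UTR in osteoblasts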
A-375 [4] = assay: A375 melanoma cell viability reduction, dose response, counter-screen for MITF modulator project, cherry-pick samples, set 2 (AID 540335); assay type: functional, cell-based; conditions: Homo sapiens
[5] = HepG2 cell cytotoxicity, dose response, cytotoxicity control for Shn3 inhibitor project, CellTiter-Glo, cherry-picked (AID 624134); assay type: functional, cell-based
[6] = control 3'UTR Renilla luciferase suppression, dose response, counter-screen for Shn3 inhibitor project, cell-based, Clone20-Shn3RL, cherry-picked (AID 624133); assay type: functional
cells = assay type: functional
[7] = HepG2 cell cytotoxicity, dose response, cytotoxicity control for non-replicating M. tuberculosis project (AID 489018); assay type: functional; conditions: Mycobacterium tuberculosis
[8] = Vero E6 cell cytotoxicity, dose response, cytotoxicity control for non-replicating M. tuberculosis project, secondary assay (AID 492998); assay type: functional, VeroE6; conditions: Vero C1008
[9] = growth suppression of PTEN-null colon cells, dose response, cell-based, HCT116 PTEN knockout (AID 1047); assay type: functional;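 also: HCT116 colon tumor cells with PTEN knocked out; cells exposed to compound for 60 hours before readout; potency for loss of cell viability measured by luminescence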
[10] = growth suppression of beta-catenin-knockout colon cells, dose response, cell-based, HCT116, human colon tumor (AID 1045); assay type: functional;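 also: HCT116 colon tumor cells with beta catenin knocked out; cells exposed to compound for 60 hours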
[11] = THP-1 cell cytotoxicity, dose response, cytotoxicity control for non-replicating M. tuberculosis project (AID 489025); assay type: functional
Paired box protein Pax-8 = Paired box protein Pax-8 (Homo sapiens, UniProt Q06710); assay: inhibitors of PAX8-driven TPO luciferase reporter, dose response, RMG-I cells, cherry-pick (AID 687027); assay type: functional, cell-based;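 also: luciferase reporter driven by Pax8 target thyroperoxidase promoter measured by SteadyGlo luminescence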
[12] = target: T1, Microphthalmia-associated transcription factor (Homo sapiens, UniProt O75030); assay: TRPM1 promoter luciferase signal decrease, dose response, MITF inhibitor project, cell-based, SK-MEL-5, cherry-picked, set 3 (AID 493073); assay type: functional
T1 sequence (O75030 whole entry): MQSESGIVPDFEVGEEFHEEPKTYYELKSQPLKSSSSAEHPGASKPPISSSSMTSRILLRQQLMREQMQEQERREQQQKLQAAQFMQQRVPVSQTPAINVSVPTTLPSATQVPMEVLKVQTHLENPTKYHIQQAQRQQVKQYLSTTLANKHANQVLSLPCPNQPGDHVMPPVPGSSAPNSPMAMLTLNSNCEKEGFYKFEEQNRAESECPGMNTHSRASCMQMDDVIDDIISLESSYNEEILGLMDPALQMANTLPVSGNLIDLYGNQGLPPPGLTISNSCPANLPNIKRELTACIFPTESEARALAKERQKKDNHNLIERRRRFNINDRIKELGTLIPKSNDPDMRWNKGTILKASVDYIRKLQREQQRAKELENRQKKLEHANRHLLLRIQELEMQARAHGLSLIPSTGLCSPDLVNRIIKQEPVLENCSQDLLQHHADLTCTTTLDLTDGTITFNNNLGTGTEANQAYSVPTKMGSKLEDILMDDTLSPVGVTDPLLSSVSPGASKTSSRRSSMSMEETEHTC

[13] = target: FAD-linked sulfhydryl oxidase ALR (Homo sapiens, UniProt P55789); assay: inhibitors of human ALR sulfhydryl oxidase, dose response, biochemical, H2O2 detection, luminescence, cherry-pick (AID 493248)
HeLa = assay: HeLa cell cytotoxicity, dose response, cytotoxicity control for MITF activator project, CellTiter-Glo luminescence, cherry-pick samples (AID 540259); assay type: functional, cell-based; conditions: Homo sapiens
A-375 [14] = assay: MITF: Counter assay: A375 proliferation Measured in Cell-Based System Using Plate Reader - 2084-03_Inhibitor_Dose_DryPowder_Activity. [Related pubchem assays (depositor defined):AID488944]; assay type: functional; conditions: Homo sapiens
[15] = cytotoxicity toward NIH3T3 fibroblasts, dose response, counter-screen, cell-based, ATP luminescence, mouse fibroblasts (AID 2010); assay type: functional;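 also: cells exposed to compound for about 90 hours before reading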
[16] = inhibitors of intracellular T. cruzi replication, confirmation, NIH3T3 host cells, beta-gal luminescence (AID 2044); assay type: functional, cell-based;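 also: intracellular parasites grown in NIH/3T3 mouse fibroblasts as host cells; luminescent beta-galactosidase reporter signal from transgenic T. cruzi replicating inside host cells; inhibitors lower the luminescence signal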
[17] = target: Serine/threonine-protein phosphatase (Candida dubliniensis (strain CD36 / CBS 7987 / NCPF 3949 / NRRLY-17841) (Yeast), UniProt B9W6M3); assay: calcineurin pathway inhibitors in yeast reporter, dose response, S. cerevisiae, CDRE-lacZ, luminescence, secondary (AID 2388); assay type: functional, cell-based;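 also: yeast reporter cells carrying a calcineurin-responsive lacZ construct stimulated with calcium chloride; luminescent beta-galactosidase reporter signal in whole cells rather than isolated phosphatase activity; potency for inhibition where a drop in reporter signal means calcineurin blockade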
[18] = target: ATP-dependent molecular chaperone HSP82 (Candida albicans (strain WO-1) (Yeast), UniProt C4YTQ8); assay: loss of DOC-induced GRE-beta-galactosidase reporter signal, dose response, Hsp90 inhibitor project, S. cerevisiae, luminescence (AID 2400); assay type: functional, cell-based;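 also: beta-galactosidase luminescence from glucocorticoid response element reporter as proxy for Hsp90 function; inhibitor potency where signal loss means Hsp90 inhibition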
[19] = target: Dual specificity tyrosine-phosphorylation-regulated kinase 1A (Rattus norvegicus, UniProt Q63470); assay type: biochemical, Homo sapiens
Caspase-6 = target: T2, Caspase-6 (Homo sapiens, UniProt P55212); assay: human caspase-6 inhibitors, dose response, biochemical, VEID-R110 fluorescence, cherry-pick (AID 720632)
T2 sequence (P55212 whole entry): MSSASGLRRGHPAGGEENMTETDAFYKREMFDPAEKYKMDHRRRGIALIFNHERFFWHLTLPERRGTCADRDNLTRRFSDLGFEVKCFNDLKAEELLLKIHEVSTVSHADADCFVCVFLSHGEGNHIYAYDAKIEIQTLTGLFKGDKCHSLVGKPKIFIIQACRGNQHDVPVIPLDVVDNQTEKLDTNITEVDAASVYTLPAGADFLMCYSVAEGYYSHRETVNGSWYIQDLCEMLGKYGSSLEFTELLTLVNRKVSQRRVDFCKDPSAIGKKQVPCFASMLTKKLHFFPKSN

[20] = target: T3, Zinc finger protein mex-5 (Caenorhabditis elegans, UniProt Q9XUB2); assay: MEX-5/TCR-2 RNA interaction inhibitors, dose response, biochemical, C. elegans, fluorescence polarization (AID 1960)
T3 sequence (Q9XUB2 whole entry): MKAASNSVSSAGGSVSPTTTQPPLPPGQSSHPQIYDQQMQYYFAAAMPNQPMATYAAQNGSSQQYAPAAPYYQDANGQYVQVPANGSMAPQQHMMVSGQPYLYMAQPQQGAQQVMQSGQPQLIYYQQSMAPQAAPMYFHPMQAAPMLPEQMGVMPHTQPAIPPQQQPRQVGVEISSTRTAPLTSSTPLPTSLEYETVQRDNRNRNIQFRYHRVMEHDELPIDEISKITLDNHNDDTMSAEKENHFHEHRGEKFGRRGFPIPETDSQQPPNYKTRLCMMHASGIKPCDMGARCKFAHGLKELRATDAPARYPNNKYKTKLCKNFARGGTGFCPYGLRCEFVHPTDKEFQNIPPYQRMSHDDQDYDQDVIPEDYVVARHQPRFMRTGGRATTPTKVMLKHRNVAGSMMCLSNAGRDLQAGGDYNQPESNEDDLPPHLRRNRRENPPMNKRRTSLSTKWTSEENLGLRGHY

[21] = target: T4, RNA-binding protein pos-1 (Caenorhabditis elegans, UniProt G5EF15); assay: inhibitors of POS-1/mex-3 RNA binding, dose response, biochemical, fluorescence polarization (AID 1964);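 also: purified POS-1 fused to maltose binding protein made in E. coli; potency of compounds blocking POS-1 binding to fluorescent RNA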
T4 sequence (G5EF15 whole entry): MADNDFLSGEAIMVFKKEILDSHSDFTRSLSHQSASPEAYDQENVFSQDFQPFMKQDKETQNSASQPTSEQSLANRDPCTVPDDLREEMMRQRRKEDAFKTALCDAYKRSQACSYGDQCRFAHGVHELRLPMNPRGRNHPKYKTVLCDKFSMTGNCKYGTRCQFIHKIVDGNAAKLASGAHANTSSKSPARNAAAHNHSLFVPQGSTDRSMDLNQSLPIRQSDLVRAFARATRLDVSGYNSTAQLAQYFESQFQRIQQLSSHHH

Genome polyprotein = Genome polyprotein (dengue virus type 2, UniProt P29990); assay: Dengue-2 NS5 methyltransferase inhibitors, primary screen, biochemical, confirmation dose response (AID 588689); assay type: functional
Hexokinase HKDC1 = Hexokinase HKDC1 (Homo sapiens, UniProt Q2TB90); assay: HKDC1 hexokinase activators, dose response, biochemical, W721R variant (AID 504730); assay type: functional
[22] = human group III sPLA2 inhibitors, dose response, biochemical, QFRET, IC50 (AID 743457);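 also: green fluorescence rise as the enzyme cleaves BODIPY PC-A2 in liposomes; potency for inhibition of the enzyme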
Hexokinase-1 = Hexokinase-1 (Homo sapiens, UniProt P19367); assay: hexokinase 1 activators, dose response, selectivity assay for HKDC1 activator project, biochemical (AID 504762); assay type: functional
[23] = target: DNA dC->dU-editing enzyme APOBEC-3G (Homo sapiens, UniProt Q9HC16); assay: Dose Response confirmation of small molecule APOBEC3G DNA Deaminase Inhibitors via a fluorescence-based single-stranded DNA deaminase assay. [Related pubchem assays (depositor defined):AID493012, AID493028]; assay type: functional
[24] = target: DNA dC->dU-editing enzyme APOBEC-3A (Homo sapiens, UniProt P31941); assay: APOBEC3A DNA deaminase inhibitors, dose response, biochemical (AID 504722); assay type: functional
[25] = target: Glucose-6-phosphate 1-dehydrogenase (Homo sapiens, UniProt P11413); assay: human G6PD enzyme inhibitors, dose response, selectivity assay for P. falciparum G6PD inhibitor project, biochemical, fluorescence (AID 504792); assay type: functional
CHO = assay: cytotoxicity in TLR9-MyD88 CHO cells, dose response, cytotoxicity control for TLR9-MyD88 binding inhibitor project, cell-based, luminescence (AID 588339); assay type: functional, hamster; conditions: Cricetulus griseus;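 also: CHO cells stably coexpressing TLR9 and MyD88 fusions from primary screen; compound exposure lasted 48 hours before viability readout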
[26] = target: T5, Heat shock factor protein 1 (Mus musculus, UniProt P38532); assay: HSF1 potentiators in luciferase reporter cells, confirmation, cell-based, NIH3T3, luminescence, dose retest (AID 435004); assay type: functional;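 also: stress induced by proteasome inhibitor MG132 added 30 min after compound; luciferase reporter driven by HSF1 response element in NIH3T3 cells; actives raise luminescence as potentiators of the MG132 stress response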
T5 sequence (P38532 whole entry): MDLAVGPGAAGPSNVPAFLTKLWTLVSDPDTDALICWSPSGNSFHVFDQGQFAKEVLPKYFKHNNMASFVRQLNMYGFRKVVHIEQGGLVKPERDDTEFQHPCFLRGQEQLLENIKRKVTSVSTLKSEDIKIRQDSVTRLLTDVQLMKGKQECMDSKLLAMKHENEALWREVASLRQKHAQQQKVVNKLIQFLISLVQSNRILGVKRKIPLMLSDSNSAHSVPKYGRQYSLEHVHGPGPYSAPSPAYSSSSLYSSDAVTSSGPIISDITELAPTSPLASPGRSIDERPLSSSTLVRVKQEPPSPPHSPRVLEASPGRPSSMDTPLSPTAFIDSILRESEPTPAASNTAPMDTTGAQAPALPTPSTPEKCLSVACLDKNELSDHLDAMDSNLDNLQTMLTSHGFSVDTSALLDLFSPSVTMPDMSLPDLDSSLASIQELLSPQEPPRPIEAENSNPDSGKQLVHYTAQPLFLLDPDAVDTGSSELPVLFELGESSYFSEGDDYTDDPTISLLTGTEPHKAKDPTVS

Beta Lactamase = Beta Lactamase (Pseudomonas aeruginosa, UniProt Q932Y6); assay: beta-lactamase reporter inhibitor potency, dose response, artefact control for TLR9-MyD88 binding inhibitor project, BLA reporter cells, FRET fluorescence (AID 588341); assay type: cell-based;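 also: cell based assay in CHO-K1 cells stably expressing beta-lactamase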
[27] = Fluorescence-based cell-based high throughput dose response assay for inhibitors of the interaction of nucleotide-binding oligomerization domain containing 2 (NOD2) and the receptor-interacting serine-threonine kinase 2 (RIPK2).; assay type: functional; conditions: Homo sapiens
[28] = Luminescence Cell-Based Dose Retest to Confirm Inhibitors of Cancer Stem Cells. [Related pubchem assays (depositor defined):AID2717, AID2721]; assay type: functional; conditions: Homo sapiens
[29] = target: Heat shock protein HSP 90-alpha (Homo sapiens, UniProt P07900); assay type: functional, organism-based

ATP-dependent molecular chaperone HSP82, sequence (C4YTQ8 whole entry): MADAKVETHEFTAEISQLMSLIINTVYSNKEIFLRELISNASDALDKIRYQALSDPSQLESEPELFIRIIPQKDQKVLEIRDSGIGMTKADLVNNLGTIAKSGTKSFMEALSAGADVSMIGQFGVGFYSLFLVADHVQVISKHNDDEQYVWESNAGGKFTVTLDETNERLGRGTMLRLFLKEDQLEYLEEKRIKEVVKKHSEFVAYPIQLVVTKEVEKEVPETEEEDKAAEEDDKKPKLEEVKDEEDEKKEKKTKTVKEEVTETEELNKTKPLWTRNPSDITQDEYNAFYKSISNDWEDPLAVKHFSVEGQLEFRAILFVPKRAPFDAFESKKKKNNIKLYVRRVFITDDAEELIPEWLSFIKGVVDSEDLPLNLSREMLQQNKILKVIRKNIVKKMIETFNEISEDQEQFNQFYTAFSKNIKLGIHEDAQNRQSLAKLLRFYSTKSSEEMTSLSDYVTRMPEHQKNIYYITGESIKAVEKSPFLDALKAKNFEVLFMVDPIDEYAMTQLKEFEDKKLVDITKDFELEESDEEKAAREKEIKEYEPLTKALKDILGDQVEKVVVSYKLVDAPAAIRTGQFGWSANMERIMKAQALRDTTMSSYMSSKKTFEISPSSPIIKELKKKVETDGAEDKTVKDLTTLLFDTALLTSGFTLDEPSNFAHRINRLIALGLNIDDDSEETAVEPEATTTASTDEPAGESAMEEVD
Serine/threonine-protein phosphatase, sequence (B9W6M3 whole entry): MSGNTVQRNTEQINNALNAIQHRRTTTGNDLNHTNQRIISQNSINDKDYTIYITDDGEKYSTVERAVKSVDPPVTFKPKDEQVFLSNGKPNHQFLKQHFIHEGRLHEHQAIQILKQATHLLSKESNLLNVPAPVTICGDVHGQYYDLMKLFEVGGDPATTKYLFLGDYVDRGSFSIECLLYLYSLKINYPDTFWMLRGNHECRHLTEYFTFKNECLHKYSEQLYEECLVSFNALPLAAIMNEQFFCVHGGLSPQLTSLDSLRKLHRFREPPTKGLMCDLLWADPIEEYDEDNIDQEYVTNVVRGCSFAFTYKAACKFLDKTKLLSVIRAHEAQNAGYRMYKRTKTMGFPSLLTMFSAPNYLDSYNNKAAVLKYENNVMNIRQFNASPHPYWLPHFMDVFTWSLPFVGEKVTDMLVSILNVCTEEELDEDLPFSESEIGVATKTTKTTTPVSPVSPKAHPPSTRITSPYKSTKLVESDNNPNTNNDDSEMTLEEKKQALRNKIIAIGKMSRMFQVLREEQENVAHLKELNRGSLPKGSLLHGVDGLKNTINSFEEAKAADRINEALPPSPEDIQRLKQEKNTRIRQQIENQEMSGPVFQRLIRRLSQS
DNA dC->dU-editing enzyme APOBEC-3A, sequence (P31941 whole entry): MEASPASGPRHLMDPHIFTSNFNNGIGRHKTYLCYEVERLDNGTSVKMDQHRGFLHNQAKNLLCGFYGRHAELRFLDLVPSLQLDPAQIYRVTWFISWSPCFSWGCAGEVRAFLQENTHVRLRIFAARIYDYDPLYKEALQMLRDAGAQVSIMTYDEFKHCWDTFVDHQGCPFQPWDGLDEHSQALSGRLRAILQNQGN
Hexokinase-1, sequence (P19367 whole entry): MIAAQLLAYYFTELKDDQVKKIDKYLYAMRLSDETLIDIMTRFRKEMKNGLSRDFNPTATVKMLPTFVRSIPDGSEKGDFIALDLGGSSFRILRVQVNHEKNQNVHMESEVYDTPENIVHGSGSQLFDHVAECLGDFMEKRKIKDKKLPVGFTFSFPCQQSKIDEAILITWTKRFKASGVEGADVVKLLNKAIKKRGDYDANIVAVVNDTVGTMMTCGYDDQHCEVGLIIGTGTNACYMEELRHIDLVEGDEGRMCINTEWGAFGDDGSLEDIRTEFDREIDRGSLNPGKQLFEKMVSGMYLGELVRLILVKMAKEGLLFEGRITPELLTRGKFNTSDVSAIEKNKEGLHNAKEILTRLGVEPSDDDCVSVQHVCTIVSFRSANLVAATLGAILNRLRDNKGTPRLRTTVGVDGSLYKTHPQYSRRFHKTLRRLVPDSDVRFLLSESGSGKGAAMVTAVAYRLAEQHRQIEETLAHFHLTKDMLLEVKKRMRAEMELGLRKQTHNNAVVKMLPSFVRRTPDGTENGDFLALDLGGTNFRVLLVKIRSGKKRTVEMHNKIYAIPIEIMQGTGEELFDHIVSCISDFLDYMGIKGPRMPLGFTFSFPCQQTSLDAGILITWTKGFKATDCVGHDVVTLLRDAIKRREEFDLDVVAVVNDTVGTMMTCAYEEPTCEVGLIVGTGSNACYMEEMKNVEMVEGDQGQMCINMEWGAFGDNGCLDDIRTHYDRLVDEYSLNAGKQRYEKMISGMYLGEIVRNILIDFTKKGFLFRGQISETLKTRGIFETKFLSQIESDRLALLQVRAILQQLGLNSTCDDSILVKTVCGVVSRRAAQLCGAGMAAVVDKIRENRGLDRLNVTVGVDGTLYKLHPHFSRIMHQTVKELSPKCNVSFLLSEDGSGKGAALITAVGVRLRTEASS
FAD-linked sulfhydryl oxidase ALR, sequence (P55789 whole entry): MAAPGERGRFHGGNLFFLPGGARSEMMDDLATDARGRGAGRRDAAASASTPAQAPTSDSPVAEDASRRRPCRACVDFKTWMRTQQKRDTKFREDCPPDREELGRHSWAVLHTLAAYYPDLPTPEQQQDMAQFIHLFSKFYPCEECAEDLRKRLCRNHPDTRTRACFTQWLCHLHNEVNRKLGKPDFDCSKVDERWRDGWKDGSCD
Paired box protein Pax-8, sequence (Q06710 whole entry): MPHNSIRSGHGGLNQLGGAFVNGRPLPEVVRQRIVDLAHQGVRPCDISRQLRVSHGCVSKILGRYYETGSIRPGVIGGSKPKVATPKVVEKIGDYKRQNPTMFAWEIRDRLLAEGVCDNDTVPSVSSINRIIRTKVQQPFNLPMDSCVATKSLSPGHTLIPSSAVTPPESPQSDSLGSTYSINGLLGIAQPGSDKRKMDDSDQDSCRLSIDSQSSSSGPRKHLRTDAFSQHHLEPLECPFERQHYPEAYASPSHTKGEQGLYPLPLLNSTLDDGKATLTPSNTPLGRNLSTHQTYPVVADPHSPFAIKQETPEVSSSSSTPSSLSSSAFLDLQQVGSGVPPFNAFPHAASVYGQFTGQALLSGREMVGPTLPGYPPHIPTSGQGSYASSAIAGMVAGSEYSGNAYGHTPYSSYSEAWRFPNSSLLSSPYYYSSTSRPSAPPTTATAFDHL
Hexokinase HKDC1, sequence (Q2TB90 whole entry): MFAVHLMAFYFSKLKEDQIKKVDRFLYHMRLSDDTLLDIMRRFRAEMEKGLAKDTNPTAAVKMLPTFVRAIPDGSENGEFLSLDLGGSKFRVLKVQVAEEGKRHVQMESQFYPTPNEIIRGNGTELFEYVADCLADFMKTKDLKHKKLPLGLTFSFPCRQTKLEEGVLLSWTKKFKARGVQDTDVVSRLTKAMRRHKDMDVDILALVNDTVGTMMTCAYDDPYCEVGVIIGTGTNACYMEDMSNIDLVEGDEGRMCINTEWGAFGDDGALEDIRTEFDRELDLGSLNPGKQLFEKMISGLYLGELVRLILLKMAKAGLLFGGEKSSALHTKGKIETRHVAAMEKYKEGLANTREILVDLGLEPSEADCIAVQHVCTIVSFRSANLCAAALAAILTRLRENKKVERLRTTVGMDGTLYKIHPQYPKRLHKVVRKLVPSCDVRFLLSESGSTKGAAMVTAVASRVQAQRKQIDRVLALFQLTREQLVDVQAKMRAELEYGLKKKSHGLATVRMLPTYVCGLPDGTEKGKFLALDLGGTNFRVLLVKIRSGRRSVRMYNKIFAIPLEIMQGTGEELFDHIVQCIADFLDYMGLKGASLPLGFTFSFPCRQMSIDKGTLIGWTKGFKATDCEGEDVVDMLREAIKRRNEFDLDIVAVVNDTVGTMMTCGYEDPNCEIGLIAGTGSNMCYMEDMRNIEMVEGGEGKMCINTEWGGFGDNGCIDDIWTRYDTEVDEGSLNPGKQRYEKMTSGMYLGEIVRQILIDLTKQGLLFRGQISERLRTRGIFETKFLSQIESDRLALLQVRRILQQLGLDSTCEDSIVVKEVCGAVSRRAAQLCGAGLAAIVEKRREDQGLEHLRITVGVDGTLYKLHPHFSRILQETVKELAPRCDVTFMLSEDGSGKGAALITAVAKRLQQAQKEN
DNA dC->dU-editing enzyme APOBEC-3G, sequence (Q9HC16 whole entry): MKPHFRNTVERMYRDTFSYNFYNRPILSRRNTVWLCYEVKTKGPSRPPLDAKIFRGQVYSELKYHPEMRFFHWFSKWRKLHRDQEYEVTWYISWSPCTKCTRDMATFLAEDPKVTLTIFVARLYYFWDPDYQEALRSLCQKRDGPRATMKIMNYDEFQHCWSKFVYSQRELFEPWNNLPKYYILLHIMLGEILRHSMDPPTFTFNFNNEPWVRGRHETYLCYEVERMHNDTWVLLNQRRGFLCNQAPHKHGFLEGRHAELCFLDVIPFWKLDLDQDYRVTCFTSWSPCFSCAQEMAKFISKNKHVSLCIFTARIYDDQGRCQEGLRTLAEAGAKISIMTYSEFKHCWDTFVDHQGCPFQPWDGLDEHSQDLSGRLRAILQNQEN
Beta Lactamase, sequence (Q932Y6 whole entry, the tested form may be a part): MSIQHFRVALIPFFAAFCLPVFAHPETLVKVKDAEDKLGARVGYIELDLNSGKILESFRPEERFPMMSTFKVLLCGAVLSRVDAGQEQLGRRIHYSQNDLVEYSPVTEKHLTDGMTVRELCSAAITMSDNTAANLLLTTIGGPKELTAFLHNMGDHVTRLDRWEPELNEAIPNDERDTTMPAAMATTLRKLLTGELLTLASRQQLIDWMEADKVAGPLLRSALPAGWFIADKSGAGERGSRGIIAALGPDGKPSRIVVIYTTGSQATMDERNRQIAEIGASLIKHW

O=C(c1ccccc1)C(CN1CCCC1)c1ccccc1 (stereo unspecified)
active: AC50 (INS1) 4.07 µM | EC50 [1] 0.292 µM | AC50 [3] 10.7 µM | AC50 (A-375 [4]) 25.2 µM | AC50 [5] 17.4 µM | AC50 [6] 6.34 µM | IC50 (cells) 8.41 µM | CC50 [7] 14.7 µM | CC50 [8] 9.26 µM | EC50 [9] 2.82 µM | EC50 [10] 1.88 µM | CC50 [11] 9.86 µM | AC50 (Paired box protein Pax-8) 4.88 µM | AC50 [12] 5.33 µM | AC50 [13] 3.73 µM
inactive: EC50 [2] > 160 µM

COC(=O)c1c(C)[nH]c(/C=N/Nc2ccccc2)c1C
active: AC50 (HeLa) 103 µM | AC50 (A-375 [4]) > 35 µM | AC50 (A-375 [14]) > 35 µM

CCCCCCOC(=O)C[N+](C)(C)CCOC1CC2CCC1(C)C2(C)C (stereo unspecified)
inactive: EC50 [17] > 180 µM
active: AC50 (INS1) 4.16 µM | EC50 [1] 0.456 µM | EC50 [2] 23.6 µM | EC50 [16] 0.178 µM | EC50 [18] 30.6 µM
> 30 µM (not active): EC50 [15]

Cc1nc2c(ccc3nc(NC(=O)Cc4ccccc4)sc32)s1
active: AC50 [19] 0.73 µM

Cc1cc(/C=N/Nc2ccc([N+](=O)[O-])cn2)c(C)n1-c1cccc(C(=O)O)c1
> 300 µM (not active): EC50 [21]
active: AC50 (Caspase-6) 14.4 µM | EC50 [20] 37.7 µM | AC50 [19] 8.79 µM

COc1cc(N=c2ssnc2Cl)c(OC)cc1Cl
active: IC50 (Genome polyprotein) > 100 µM | IC50 [23] 8.83 µM
inactive: EC50 (Hexokinase HKDC1) 27.2 µM | IC50 [22] 92.1 µM | EC50 (Hexokinase-1) 41.9 µM | IC50 [24] > 100 µM | IC50 [25] 68.8 µM

O=C(Nc1cccc(-c2cn3ccccc3n2)c1)c1cccc(Cl)c1
inactive: EC50 [17] > 180 µM | EC50 [18] > 160 µM
active: EC50 [1] 1.05 µM | EC50 [2] 11 µM

C=CCN1C(=O)/C(=C2/C(=O)Nc3ccccc32)c2ccccc21
active: IC50 (CHO) 3.64 µM | EC50 [26] 8.91 µM | IC50 (cells) 0.4 µM | IC50 [27] 2.1 µM | CC50 [8] 3.31 µM | AC50 [28] 4.32 µM | CC50 [11] 19.7 µM | AC50 [29] 1.17 µM
inactive: IC50 (Beta Lactamase) > 49.8 µM
